# Literature values as cited in patent publication US20060003361A1, “SMVT transporters expressed in cancer cells” (Xenoport, Inc., priority 2004, published 2006).
# Molecular target: T1, SMVT (Homo sapiens, UniProt Q9Y289)
# T1 sequence (Q9Y289 1-635): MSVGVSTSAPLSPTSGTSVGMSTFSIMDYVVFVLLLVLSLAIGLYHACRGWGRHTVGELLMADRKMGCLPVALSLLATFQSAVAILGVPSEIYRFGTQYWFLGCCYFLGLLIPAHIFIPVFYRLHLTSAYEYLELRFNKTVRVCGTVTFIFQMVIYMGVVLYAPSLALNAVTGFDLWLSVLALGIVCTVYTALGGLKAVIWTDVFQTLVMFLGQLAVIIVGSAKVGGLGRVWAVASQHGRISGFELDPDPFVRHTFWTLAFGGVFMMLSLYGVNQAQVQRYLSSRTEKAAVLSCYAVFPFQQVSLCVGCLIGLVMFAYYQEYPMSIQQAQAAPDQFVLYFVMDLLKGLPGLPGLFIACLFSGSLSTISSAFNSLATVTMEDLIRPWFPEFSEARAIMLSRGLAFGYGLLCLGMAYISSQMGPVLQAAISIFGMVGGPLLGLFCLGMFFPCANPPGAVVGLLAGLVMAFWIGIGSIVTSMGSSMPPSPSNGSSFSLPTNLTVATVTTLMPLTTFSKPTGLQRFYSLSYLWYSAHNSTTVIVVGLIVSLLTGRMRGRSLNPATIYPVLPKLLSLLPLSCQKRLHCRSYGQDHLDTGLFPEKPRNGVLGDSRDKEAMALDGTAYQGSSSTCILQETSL
row,Reported Affinity for SMVT [mM],Compound
1,0.03,CC(C)(CO)[C@@H](O)C(=O)NCCC(=O)O [Pantothenic acid]
2,0.04,O=C(O)CCCc1ccccc1 [4-phenyl-butyric acid]

row,Compound,Reported Affinity for SMVT [mM]
1,O=C(O)CCCC[C@@H]1SC[C@@H]2NC(=O)N[C@@H]21 [Biotin],0.01
